From paper PMC10821035, “Silver and Copper Complexes with Ibuprofen and Caffeine—Preparation and Evaluation of Their Selected Biological Effects” (Molecules, 2024)
Like-named read-outs stand apart in the source and are kept apart here.

How the values were obtained:
ovine COX-1 = target: T1, ovine COX-1 (Ovis aries, UniProt P05979); test: COX (ovine/human) Inhibitor Screening Assay, COX-1; assay type: biochemical
T1 construct: purchased Cayman Chemicals
T1 sequence (P05979 25-600): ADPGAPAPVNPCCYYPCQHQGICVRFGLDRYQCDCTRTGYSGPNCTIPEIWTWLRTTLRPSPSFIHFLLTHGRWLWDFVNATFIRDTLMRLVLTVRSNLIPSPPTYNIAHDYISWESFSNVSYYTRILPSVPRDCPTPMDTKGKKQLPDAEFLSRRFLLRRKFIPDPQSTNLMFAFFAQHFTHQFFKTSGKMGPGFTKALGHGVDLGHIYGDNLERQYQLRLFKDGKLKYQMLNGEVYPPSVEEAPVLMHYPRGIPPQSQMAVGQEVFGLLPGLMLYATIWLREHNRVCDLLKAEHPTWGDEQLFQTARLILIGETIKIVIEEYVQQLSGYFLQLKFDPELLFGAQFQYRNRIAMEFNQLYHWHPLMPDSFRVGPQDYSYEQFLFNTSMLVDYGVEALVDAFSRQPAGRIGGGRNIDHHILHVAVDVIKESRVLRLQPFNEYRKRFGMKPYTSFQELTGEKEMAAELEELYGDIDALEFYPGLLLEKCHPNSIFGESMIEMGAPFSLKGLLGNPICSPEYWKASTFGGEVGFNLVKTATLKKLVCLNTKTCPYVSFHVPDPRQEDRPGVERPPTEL
Procedure: The ability of the obtained complexes to inhibit cyclooxygenase activity was measured using a COX (ovine/human) Inhibitor Screening Assay Kit (Cayman Chemicals, MI, USA) with ovine COX-1 and human recombinant COX-2. The amount of prostaglandin, dependent on the COX activity, after exposure to the tested complexes was calculated from the standard curve. […] The selectivity indices (SIs) were calculated according to the formula COX-1 IC50/COX-2 IC50.

[1] = tested on: Staphylococcus aureus ATCC 6538; test: Disc diffusion test (Kirby–Bauer); assay type: cell-based; details: concentration according to MIC, 6 mm filter discs
Procedure: (§1) The bacterial strains Bacillus subtilis ATCC 6637, Bacteroides fragilis ATCC 25285, Clostridium bifermentans ATCC 638, Escherichia coli ATCC 35218, Enterococcus faecalis ATCC 29212, Pseudomonas aeruginosa ATCC 27853, Staphylococcus aureus ATCC 6538, Staphylococcus aureus ATCC 25923, Staphylococcus aureus ATCC 29213, Staphylococcus aureus ATCC 43300, and Staphylococcus epidermidis ATCC 12228 were cultured in Mueller–Hinton medium (Oxoid, Basingstoke, UK) at 37 °C for 24 h.
(§2) The antimicrobial sensibility assay was performed according to the Kirby–Bauer method using 6 mm filter discs. Mueller–Hinton agar (Oxoid) was poured onto Petri dishes (90 mm), and saturated filter discs at the concentration determined as the MIC were placed onto the agar surface after distributing bacteria on the agar. The Petri dishes were incubated at 37 °C for 24 h.

[2] = tested on: Pseudomonas aeruginosa ATCC 27853; test: Disc diffusion test (Kirby–Bauer); assay type: cell-based; details: concentration according to MIC, 6 mm filter discs
Procedure: as §1, §2

[3] = tested on: Staphylococcus aureus ATCC 25923; test: Disc diffusion test (Kirby–Bauer); assay type: cell-based; details: concentration according to MIC, 6 mm filter discs
Procedure: as §1, §2

[4] = tested on: Bacteroides fragilis ATCC 25285; test: Disc diffusion test (Kirby–Bauer); assay type: cell-based; details: concentration according to MIC, 6 mm filter discs
Procedure: as §1, §2

[5] = tested on: Staphylococcus epidermidis ATCC 12228; test: Disc diffusion test (Kirby–Bauer); assay type: cell-based; details: concentration according to MIC, 6 mm filter discs
Procedure: as §1, §2

[6] = tested on: Staphylococcus aureus ATCC 43300; test: Disc diffusion test (Kirby–Bauer); assay type: cell-based; details: concentration according to MIC, 6 mm filter discs
Procedure: as §1, §2

[7] = tested on: Bacillus subtilis ATCC 6637; test: Disc diffusion test (Kirby–Bauer); assay type: cell-based; details: concentration according to MIC, 6 mm filter discs
Procedure: as §1, §2

[8] = tested on: Escherichia coli ATCC 25218; test: Disc diffusion test (Kirby–Bauer); assay type: cell-based; details: concentration according to MIC, 6 mm filter discs
Procedure: as §1, §2

[9] = tested on: Enterococcus faecalis ATCC 29212; test: Disc diffusion test (Kirby–Bauer); assay type: cell-based; details: concentration according to MIC, 6 mm filter discs
Procedure: as §1, §2

[10] = tested on: Staphylococcus aureus ATCC 29213; test: Disc diffusion test (Kirby–Bauer); assay type: cell-based; details: concentration according to MIC, 6 mm filter discs
Procedure: as §1, §2

[11] = tested on: all tested bacterial strains; test: MIC by broth microdilution, all tested bacterial strains; assay type: cell-based
Procedure: as §1
(§3) The minimal inhibitory concentration (MIC) was determined by the broth microdilution method according to the standards of the Clinical and Laboratory Standards Institute (CLSI) manuals in 96-well plates. All stock solutions of the investigated complexes were prepared in DMSO with concentrations of 2 mg mL^−1.
(§4) The MIC was estimated as the lowest concentration of the complex inhibiting bacterial growth. As negative controls, samples without inoculum at each complex concentration were used, whereas the positive control contained the inoculum but not the investigated complexes. Each complex was tested at concentrations between 2.5 and 160 µg mL^−1. The first well contained the highest concentration, and further concentrations were achieved by serial dilution. The assay was performed in duplicate with three repetitions for each bacterial strain.

[12] = tested on: Staphylococcus aureus ATCC 6538; test: MIC by broth microdilution; assay type: cell-based
Procedure: as §1, §3, §4

[13] = tested on: Pseudomonas aeruginosa ATCC 27853; test: MIC by broth microdilution; assay type: cell-based
Procedure: as §1, §3, §4

[14] = tested on: Staphylococcus aureus ATCC 25923; test: MIC by broth microdilution; assay type: cell-based
Procedure: as §1, §3, §4

[15] = tested on: Bacteroides fragilis ATCC 25285; test: MIC by broth microdilution; assay type: cell-based
Procedure: as §1, §3, §4

[16] = tested on: Staphylococcus epidermidis ATCC 12228; test: MIC by broth microdilution; assay type: cell-based
Procedure: as §1, §3, §4

[17] = tested on: Staphylococcus aureus ATCC 43300; test: MIC by broth microdilution; assay type: cell-based
Procedure: as §1, §3, §4

[18] = tested on: Bacillus subtilis ATCC 6637; test: MIC by broth microdilution; assay type: cell-based
Procedure: as §1, §3, §4

[19] = tested on: Escherichia coli ATCC 25218; test: MIC by broth microdilution; assay type: cell-based
Procedure: as §1, §3, §4

[20] = tested on: Enterococcus faecalis ATCC 29212; test: MIC by broth microdilution; assay type: cell-based
Procedure: as §1, §3, §4

[21] = tested on: Staphylococcus aureus ATCC 29213; test: MIC by broth microdilution; assay type: cell-based
Procedure: as §1, §3, §4

CCD-18Co cells = test: XTT cytotoxicity/proliferation assay on CCD-18Co fibroblasts; assay type: cell-based, human; details: 24 h incubation, XTT test
Procedure: The cell line CCD-18Co (fibroblasts from the colon of a healthy human) was obtained from the American Type Cells Collections (Cat. No. ATCC-CRL-1459). The cells were cultured in Minimum Essential Medium Eagle (MEM) with Earle’s salts, L-glutamine, sodium bicarbonate, and phenol red, supplemented with 10% fetal bovine serum (FBS), 1% non-essential amino acids (NEAAs), and 1% penicillin/streptomycin solution (P/S), all purchased from Sigma-Aldrich (St. Louis, MO, USA). The incubation parameters were 37 ℃, 5% CO2, and 95% relative humidity. The cytotoxicity of the tested complexes (Ag-IBU, Ag-IBU-CAF, Cu-IBU, and Cu-IBU-CAF) was derived using two distinct parameters: (1) tetrazolium salt (XTT) reduction by mitochondrial succinate dehydrogenases using an XTT (Tetrazolium hydroxide) Kit; and (2) neutral red (NR) dye uptake and incorporation within lysosomes using an NR (Neutral Red) Kit. Both kits were produced by Xenometrix AG, Allschwil, Switzerland. The assays were carried out without any substantial changes to the test procedures provided by the manufacturer. The stock solutions of the tested compounds at 20 mg mL^−1 were prepared in DMSO. […] The cells were incubated for the next 3 h, gently mixed, and the absorbance was read at 480 nm with a reference wavelength of 690 nm using the multi-mode plate reader FLUOstar Omega (BMG Labtech, Ortenberg, Germany). […]

Row | Compound | IC50 COX-1 (ovine COX-1) [µg/mL] | Inhibition Halo [1] [mm] | Inhibition Halo [2] [mm] | Inhibition Halo [3] [mm] | Inhibition Halo [4] [mm] | Inhibition Halo [5] [mm] | Inhibition Halo [6] [mm] | Inhibition Halo [7] [mm] | Inhibition Halo [8] [mm] | Inhibition Halo [9] [mm] | Inhibition Halo [10] [mm] | MIC ([11]; 2.5–160 µg mL^−1) [µg/mL] | MIC [12] [µg/mL] | MIC [13] [µg/mL] | MIC [14] [µg/mL] | MIC [15] [µg/mL] | MIC [16] [µg/mL] | MIC [17] [µg/mL] | MIC [18] [µg/mL] | MIC [19] [µg/mL] | further results
1 | CC(C)Cc1ccc(C(C)C(=O)[O][Ag])cc1 (centres unmarked) [Ag-IBU] | 64.6 | 14 | 10 | 14 | 7 | 10 | 13 | 11 | 9 | 14 | 7 | ≤ 20 | 10 | 10 | 10 | 20 | 20 | 20 | 10 | 10 | MIC [20]: 10 µg/mL; MIC [21]: 5 µg/mL; 24h-IC50 (CCD-18Co cells): 25.10 µg/mL
2 | CC(C)Cc1ccc(C(C)C(=O)O)cc1 (racemic) [IBU, (RS)-2-(4-(2-methylpropyl)phenyl)propanoic acid, reference compound] |  |  |  |  |  |  |  |  |  |  |  |  |  |  |  |  |  |  |  |  | MIC ([11]; 2.5–160 µg mL^−1, read-out: MIC): > 200 µg/mL
3 | CC(C)Cc1ccc(C(C)C(=O)[O][Ag])cc1.Cn1c(=O)c2c(ncn2C)n(C)c1=O (centres unmarked) [Ag-IBU-CAF] | 62.5 | 15 | 15 | 16 | 10 | 11 | 15 | 13 | 17 | 16 | 12 | ≤ 20 | 5 | 10 | 5 | 20 | 10 | 10 | 10 | 5 | MIC [20]: 5 µg/mL; MIC [21]: 5 µg/mL; 24h-IC50 (CCD-18Co cells): 33.35 µg/mL
